≈ marks a conversion by molar mass, not a printed value. Like-named read-outs stand apart in the source and are kept apart here.
Assay: Solubility of agrochemical active ingredient in oil comprising ionic liquid
Format: physicochemical
Conditions: for solubility: 21 °C, thermodynamic from solid
Excerpt: Alternatively, the oil, which comprised the ionic liquid, was saturated with the active ingredient and the soluble fraction of active ingredient was quantified by means of HPLC. In the first line of the tables, in each case the weight ratios of oil to IL are given.

- Solubility of fluxapyroxad with Agnique AMD 12 ® (N,N-dimethyldodecanamide, lauryl N,N-dimethylamide) as oil (21° C., Oil/IL 20/80 weight ratio, IL N-butyl-N′-methylimidazolium acetate): 43.1 mg/mL
- Solubility of fluxapyroxad with Agnique AMD 12 ® (N,N-dimethyldodecanamide, lauryl N,N-dimethylamide) as oil (21° C., Oil/IL 20/80 weight ratio, IL N-ethyl-N′-methylimidazolium acetate): 39.5 mg/mL
- Solubility of fluxapyroxad with Agnique AMD 12 ® (N,N-dimethyldodecanamide, lauryl N,N-dimethylamide) as oil (21° C., Oil/IL 20/80 weight ratio, IL N-ethyl-N′-methylimidazolium isononanoate): 38.4 mg/mL
- Solubility of fluxapyroxad with Agnique AMD 12 ® (N,N-dimethyldodecanamide, lauryl N,N-dimethylamide) as oil (21° C., Oil/IL 20/80 weight ratio, IL Tetrabutylammonium [2-(2-methoxyethoxy)ethoxy]acetate): 37.5 mg/mL
- Solubility of fluxapyroxad with Agnique AMD 12 ® (N,N-dimethyldodecanamide, lauryl N,N-dimethylamide) as oil (21° C., Oil/IL 60/40 weight ratio, IL N-butyl-N′-methylimidazolium acetate): 55.9 mg/mL
- Solubility of fluxapyroxad with Agnique AMD 12 ® (N,N-dimethyldodecanamide, lauryl N,N-dimethylamide) as oil (21° C., Oil/IL 60/40 weight ratio, IL N-ethyl-N′-methylimidazolium acetate): 40.4 mg/mL
- Solubility of fluxapyroxad with Agnique AMD 12 ® (N,N-dimethyldodecanamide, lauryl N,N-dimethylamide) as oil (21° C., Oil/IL 60/40 weight ratio, IL N-ethyl-N′-methylimidazolium isononanoate): 48.1 mg/mL
- Solubility of fluxapyroxad with Agnique AMD 12 ® (N,N-dimethyldodecanamide, lauryl N,N-dimethylamide) as oil (21° C., Oil/IL 60/40 weight ratio, IL Tetrabutylammonium [2-(2-methoxyethoxy)ethoxy]acetate): 33.1 mg/mL
- Solubility of fluxapyroxad with Agnique AMD 12 ® (N,N-dimethyldodecanamide, lauryl N,N-dimethylamide) as oil (21° C., Oil/IL 90/10 weight ratio, IL N-ethyl-N′-methylimidazolium acetate): 38.2 mg/mL
- Solubility of fluxapyroxad with Agnique AMD 12 ® (N,N-dimethyldodecanamide, lauryl N,N-dimethylamide) as oil (21° C., Oil/IL 90/10 weight ratio, IL Tetrabutylammonium [2-(2-methoxyethoxy)ethoxy]acetate): 29.7 mg/mL
- solubility (oil or lipid, 21° C., Oil/IL 20/80 weight ratio, IL N-ethyl-N′-ethylimidazolium propionate, read-out: Solubility of fluxapyroxad with Solvesso ® 200 ND as oil): 39.4 mg/mL
- solubility (oil or lipid, 21° C., Oil/IL 20/80 weight ratio, IL N-ethyl-N′-methylimidazolium isononanoate, read-out: Solubility of fluxapyroxad with Solvesso ® 200 ND as oil): 28.6 mg/mL
- solubility (oil or lipid, 21° C., Oil/IL 60/40 weight ratio, IL N-ethyl-N′-ethylimidazolium propionate, read-out: Solubility of fluxapyroxad with Solvesso ® 200 ND as oil): 50.5 mg/mL
- solubility (oil or lipid, 21° C., Oil/IL 60/40 weight ratio, IL N-ethyl-N′-methylimidazolium isononanoate, read-out: Solubility of fluxapyroxad with Solvesso ® 200 ND as oil): 42.9 mg/mL
- solubility (oil or lipid, 21° C., Oil/IL 90/10 weight ratio, IL N-ethyl-N′-ethylimidazolium propionate, read-out: Solubility of fluxapyroxad with Solvesso ® 200 ND as oil): 21.3 mg/mL
- solubility (oil or lipid, 21° C., Oil/IL 90/10 weight ratio, IL N-ethyl-N′-methylimidazolium isononanoate, read-out: Solubility of fluxapyroxad with Solvesso ® 200 ND as oil): 15.3 mg/mL
- solubility (oil or lipid, 21° C., Oil/IL 90/10 weight ratio, IL Tetrabutylammonium [2-(2-methoxyethoxy)ethoxy]acetate, read-out: Solubility of fluxapyroxad with Solvesso ® 200 ND as oil): 18.4 mg/mL
- solubility (oil or lipid, Solubility of fluxapyroxad with Agnique AMD 12 ® (N,N-dimethyldodecanamide, lauryl N,N-dimethylamide) as oil): 25.9 mg/mL (≈ 67.9 mM)
- solubility (organic solvent or mixture, 21° C., 100 IL (no oil), IL N-ethyl-N′-methylimidazolium isononanoate, read-out: Solubility of fluxapyroxad with Cetiol ® B as oil): 9.5 mg/mL (≈ 24.9 mM)
- solubility (organic solvent or mixture, 21° C., 100 IL (no oil), IL N-ethyl-N′-methylimidazolium isononanoate, read-out: Solubility of fluxapyroxad with Solvesso ® 200 ND as oil): 9.5 mg/mL (≈ 24.9 mM)
- solubility (organic solvent or mixture, 21° C., 100 IL (no oil), IL Tetrabutylammonium [2-(2-methoxyethoxy)ethoxy]acetate, read-out: Solubility of fluxapyroxad with Solvesso ® 200 ND as oil): 9.5 mg/mL (≈ 24.9 mM)
- solubility (organic solvent or mixture, Solubility of fluxapyroxad with Agnique AMD 12 ® (N,N-dimethyldodecanamide, lauryl N,N-dimethylamide) as oil): 5 mg/mL (≈ 13.1 mM)
- solubility (organic solvent or mixture, Solubility of fluxapyroxad with Cetiol ® B as oil): 5 mg/mL (≈ 13.1 mM)
- solubility (organic solvent or mixture, Solubility of fluxapyroxad with Solvesso ® 200 ND as oil): 5 mg/mL (≈ 13.1 mM)
- solubility (Cetiol B / N-ethyl-N′-methylimidazolium isononanoate mixture, oil or lipid, 21° C., Oil/IL 20/80 weight ratio, IL N-ethyl-N′-methylimidazolium isononanoate, read-out: Solubility of fluxapyroxad with Cetiol ® B as oil): 48.7 mg/mL
- solubility (Cetiol B / N-ethyl-N′-methylimidazolium isononanoate mixture, oil or lipid, 21° C., Oil/IL 60/40 weight ratio, IL N-ethyl-N′-methylimidazolium isononanoate, read-out: Solubility of fluxapyroxad with Cetiol ® B as oil): 46.7 mg/mL
- solubility (Cetiol B / N-ethyl-N′-methylimidazolium isononanoate mixture, oil or lipid, 21° C., Oil/IL 90/10 weight ratio, IL N-ethyl-N′-methylimidazolium isononanoate, read-out: Solubility of fluxapyroxad with Cetiol ® B as oil): 20.7 mg/mL
- solubility (Cetiol B / cholinium octanoate mixture, oil or lipid, 21° C., Oil/IL 20/80 weight ratio, IL Cholinium octanoate, read-out: Solubility of fluxapyroxad with Cetiol ® B as oil): 34.2 mg/mL
- solubility (Cetiol B oil comprising ionic liquid, oil or lipid, 21° C., Oil/IL 20/80 weight ratio, IL N-butyl-N′-methylimidazolium acetate, read-out: Solubility of fluxapyroxad with Cetiol ® B as oil): 54.9 mg/mL
- solubility (Cetiol B oil comprising ionic liquid, oil or lipid, 21° C., Oil/IL 20/80 weight ratio, IL N-butyl-N′-methylimidazolium dimethylphosphate, read-out: Solubility of fluxapyroxad with Cetiol ® B as oil): 44.1 mg/mL
- solubility (Cetiol B oil comprising ionic liquid, oil or lipid, 21° C., Oil/IL 20/80 weight ratio, IL N-ethyl-N′-ethylimidazolium propionate, read-out: Solubility of fluxapyroxad with Cetiol ® B as oil): 60.2 mg/mL
- solubility (Cetiol B oil comprising ionic liquid, oil or lipid, 21° C., Oil/IL 20/80 weight ratio, IL N-ethyl-N′-methylimidazolium acetate, read-out: Solubility of fluxapyroxad with Cetiol ® B as oil): 56.2 mg/mL
- solubility (Cetiol B oil comprising ionic liquid, oil or lipid, 21° C., Oil/IL 20/80 weight ratio, IL N-ethyl-N′-methylimidazolium dibutylphosphate, read-out: Solubility of fluxapyroxad with Cetiol ® B as oil): 16.8 mg/mL
- solubility (Cetiol B oil comprising ionic liquid, oil or lipid, 21° C., Oil/IL 20/80 weight ratio, IL N-ethyl-N′-methylimidazolium heptanoate, read-out: Solubility of fluxapyroxad with Cetiol ® B as oil): 28.4 mg/mL
- solubility (Cetiol B oil comprising ionic liquid, oil or lipid, 21° C., Oil/IL 20/80 weight ratio, IL N-ethyl-N′-methylimidazolium octanoate, read-out: Solubility of fluxapyroxad with Cetiol ® B as oil): 25.7 mg/mL
- solubility (Cetiol B oil comprising ionic liquid, oil or lipid, 21° C., Oil/IL 20/80 weight ratio, IL N-propyl-N′-propylimidazolium acetate, read-out: Solubility of fluxapyroxad with Cetiol ® B as oil): 59.2 mg/mL
- solubility (Cetiol B oil comprising ionic liquid, oil or lipid, 21° C., Oil/IL 20/80 weight ratio, IL Tetrabutylammonium [2-(2-methoxyethoxy)ethoxy]acetate, read-out: Solubility of fluxapyroxad with Cetiol ® B as oil): 38.3 mg/mL
- solubility (Cetiol B oil comprising ionic liquid, oil or lipid, 21° C., Oil/IL 60/40 weight ratio, IL Cholinium octanoate, read-out: Solubility of fluxapyroxad with Cetiol ® B as oil): 33.6 mg/mL
- solubility (Cetiol B oil comprising ionic liquid, oil or lipid, 21° C., Oil/IL 60/40 weight ratio, IL N-butyl-N′-methylimidazolium acetate, read-out: Solubility of fluxapyroxad with Cetiol ® B as oil): 50.6 mg/mL
SMILES: Cn1cc(C(=O)Nc2ccccc2-c2cc(F)c(F)c(F)c2)c(C(F)F)n1 [fluxapyroxad, 3-(difluoromethyl)-1-methyl-N-(3′,4′,5′-trifluorobiphenyl-2-yl)pyrazole-4-carboxamide]
